For the experiment, the target named is IRE1α (Homo sapiens (Human), UniProt O75460, D688N). As to the kind of experiment: IRE1α TR-FRET competition binding assay (IRE1α HTRF). The settings on record: TR-FRET competition binding to kinase domain of IRE1α. The protocol: IRE1α TR-FRET Competition Binding Assay. The affinity of compound binding to the kinase domain of IRE1α was determined using a time-resolved fluorescence resonance energy transfer (TR-FRET) competition assay.
Chain of IRE1α (O75460 547-977 D688N): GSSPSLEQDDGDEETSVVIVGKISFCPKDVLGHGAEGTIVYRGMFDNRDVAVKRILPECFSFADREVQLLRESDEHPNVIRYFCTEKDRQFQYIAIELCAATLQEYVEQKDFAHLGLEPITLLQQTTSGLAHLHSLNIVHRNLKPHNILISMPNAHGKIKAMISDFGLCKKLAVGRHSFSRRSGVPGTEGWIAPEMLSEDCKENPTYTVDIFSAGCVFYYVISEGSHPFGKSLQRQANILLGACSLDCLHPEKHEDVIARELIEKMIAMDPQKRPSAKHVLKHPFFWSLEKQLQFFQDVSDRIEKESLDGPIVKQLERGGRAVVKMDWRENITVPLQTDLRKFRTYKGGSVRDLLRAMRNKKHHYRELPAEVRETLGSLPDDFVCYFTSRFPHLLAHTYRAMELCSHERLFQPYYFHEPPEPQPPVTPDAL
The purified protein (final concentration 0.25 nM) was pre-incubated with anti-His Europium labeled antibody (Life Technologies PV5596, final concentration 2 nM) for one hour at 4° C. in TR-FRET Assay Buffer (50 mM HEPES, pH 7.5, 10 mM MgCl2, 0.083 mM Brij 35, 1 mM DTT, and 0.1% bovine gamma globulin) prior to addition to test compounds. An Alexa fluor 647-labeled probe based on an ATP competitive inhibitor was added to a final concentration of 2 nM. Reactions were carried out for one hour at room temperature in a final volume of 20 μL in 384 well white ProxiPlates (Perkin Elmer 6008289). Binding of the probe to the IRE1α protein was detected in an Envision instrument (PerkinElmer) equipped with a TRF laser option and a LANCE/Delfia Dual/Bias D400/D630 mirror (Ex 347 nm, 1st Em 665 nm, 2nd Em 615 nm).
`CC(C)n1c(=O)c(-c2cc(F)c(NS(=O)(=O)CCC(F)(F)F)c(F)c2)nc2cnc(N[C@@H]3CC[C@@H](N(C)C)[C@H](F)C3)nc21` (stereo in doubt) [Compound 168B, N-(4-(2-((4-(Dimethylamino)-3-fluorocyclohexyl)amino)-8-isopropyl-7-oxo-7,8-dihydropteridin-6-yl)-2,6-difluorophenyl)-3,3,3-trifluoropropane-1-sulfonamide] gave an IC50 of 0.23 nM. For the molecule `CC(C)n1c(=O)c(-c2ccc(NS(=O)(=O)CCC(F)(F)F)c(F)c2)nc2cnc(N[C@H]3CC[C@H](N(C)C)[C@@H](F)C3)nc21` (stereo in doubt) [Compound 179A, N-(4-(2-((4-(Dimethylamino)-3-fluorocyclohexyl)amino)-8-isopropyl-7-oxo-7,8-dihydropteridin-6-yl)-2-fluorophenyl)-3,3,3-trifluoropropane-1-sulfonamide], the IC50 turned out to be 0.22 nM.

As for `CC(C)n1c(=O)c(-c2ccc(NS(=O)(=O)CCC(F)(F)F)c(F)c2)nc2cnc(N[C@@H]3CC[C@@H](N(C)C)[C@H](F)C3)nc21` (stereo in doubt) [Compound 179B, N-(4-(2-((4-(Dimethylamino)-3-fluorocyclohexyl)amino)-8-isopropyl-7-oxo-7,8-dihydropteridin-6-yl)-2-fluorophenyl)-3,3,3-trifluoropropane-1-sulfonamide], the IC50 amounted to 0.15 nM.

Regarding `CC(C)n1c(=O)c(-c2ccc(NS(=O)(=O)Cc3ccc(F)cc3)c(F)c2)nc2cnc(N[C@@H]3CC[C@@H](N(C)C)[C@H](F)C3)nc21` (stereo in doubt) [Compound 181A, N-(4-(2-((4-(Dimethylamino)-3-fluorocyclohexyl)amino)-8-isopropyl-7-oxo-7,8-dihydropteridin-6-yl)-2-fluorophenyl)-1-(4-fluorophenyl)methanesulfonamide], the IC50 worked out at 0.16 nM. The molecule `CC(C)n1c(=O)c(-c2ccc(NS(=O)(=O)Cc3ccc(F)cc3)c(F)c2)nc2cnc(N[C@H]3CC[C@H](N(C)C)[C@@H](F)C3)nc21` (stereo in doubt) [Compound 181B, N-(4-(2-((4-(Dimethylamino)-3-fluorocyclohexyl)amino)-8-isopropyl-7-oxo-7,8-dihydropteridin-6-yl)-2-fluorophenyl)-1-(4-fluorophenyl)methanesulfonamide] yielded an IC50 of 0.15 nM. As to `CC(C)n1c(=O)c(-c2ccc(NS(=O)(=O)Cc3ccccc3)c(F)c2)nc2cnc(N[C@H]3CC[C@H](N(C)C)[C@@H](F)C3)nc21` (stereo in doubt) [Compound 192A, N-(4-(2-((4-(Dimethylamino)-3-fluorocyclohexyl)amino)-8-isopropyl-7-oxo-7,8-dihydropteridin-6-yl)-2-fluorophenyl)-1-phenylmethanesulfonamide], the IC50 was 0.11 nM.

In turn, `CC(C)n1c(=O)c(-c2ccc(NS(=O)(=O)Cc3ccccc3)c(F)c2)nc2cnc(N[C@@H]3CC[C@@H](N(C)C)[C@H](F)C3)nc21` (stereo in doubt) [Compound 192B, N-(4-(2-((4-(Dimethylamino)-3-fluorocyclohexyl)amino)-8-isopropyl-7-oxo-7,8-dihydropteridin-6-yl)-2-fluorophenyl)-1-phenylmethanesulfonamide] registered an IC50 of 0.09 nM. On to `CC(C)n1c(=O)c(-c2ccc(NS(=O)(=O)CC3CC(F)(F)C3)c(F)c2)nc2cnc(N[C@H]3CC[C@H](N(C)C)[C@@H](F)C3)nc21` (stereo in doubt) [Compound 193A, 1-(3,3-Difluorocyclobutyl)-N-(4-(2-((4-(dimethylamino)-3-fluorocyclohexyl)amino)-8-isopropyl-7-oxo-7,8-dihydropteridin-6-yl)-2-fluorophenyl)methanesulfonamide], for which the IC50 turned out to be 0.2 nM. `CC(C)n1c(=O)c(-c2ccc(NS(=O)(=O)CC3CC(F)(F)C3)c(F)c2)nc2cnc(N[C@@H]3CC[C@@H](N(C)C)[C@H](F)C3)nc21` (stereo in doubt) [Compound 193B, 1-(3,3-Difluorocyclobutyl)-N-(4-(2-((4-(dimethylamino)-3-fluorocyclohexyl)amino)-8-isopropyl-7-oxo-7,8-dihydropteridin-6-yl)-2-fluorophenyl)methanesulfonamide] yielded an IC50 of 0.17 nM. `Cn1c(=O)c(-c2ccc(NS(=O)(=O)Cc3ccccc3)c(F)c2F)cc2cnc(N[C@H]3CCCNC3)nc21` [Compound 1, (S)—N-(2,3-Difluoro-4-(8-methyl-7-oxo-2-(piperidin-3-ylamino)-7,8-dihydropyrido[2,3-d]pyrimidin-6-yl)phenyl)-1-phenylmethanesulfonamide] registered an IC50 of 2.8 nM. Next, `Cn1c(=O)c(-c2ccc(NS(=O)(=O)Cc3ccccc3)c(F)c2F)cc2cnc(N[C@@H]3CNC[C@@H](F)C3)nc21` [Compound 2, N-(2,3-Difluoro-4-(2-(((3S,5S)-5-fluoropiperidin-3-yl)amino)-8-methyl-7-oxo-7,8-dihydropyrido[2,3-d]pyrimidin-6-yl)phenyl)-1-phenylmethanesulfonamide]: 2.1 nM; `CCn1c(=O)c(-c2ccc(NS(=O)(=O)Cc3ccccc3)c(F)c2F)cc2cnc(N[C@H]3CCCNC3)nc21` [Compound 3, (S)—N-(4-(8-Ethyl-7-oxo-2-(piperidin-3-ylamino)-7,8-dihydropyrido[2,3-d]pyrimidin-6-yl)-2,3-difluorophenyl)-1-phenylmethanesulfonamide]: 0.68 nM. As for `Cn1c(=O)c(-c2cccc3c(NS(=O)(=O)CCC(F)(F)F)c(F)ccc23)cc2cnc(N[C@H]3CCCNC3)nc21` [Compound 4, (S)-3,3,3-Trifluoro-N-(2-fluoro-5-(8-methyl-7-oxo-2-(piperidin-3-ylamino)-7,8-dihydropyrido[2,3-d]pyrimidin-6-yl)naphthalen-1-yl)propane-1-sulfonamide], the IC50 was 5 nM. For the molecule `Cn1c(=O)c(-c2cccc3c(NS(=O)(=O)Cc4ccccc4)c(F)ccc23)cc2cnc(N[C@H]3CCCNC3)nc21` [Compound 5, (S)—N-(2-Fluoro-5-(8-methyl-7-oxo-2-(piperidin-3-ylamino)-7,8-dihydropyrido[2,3-d]pyrimidin-6-yl)naphthalen-1-yl)-1-phenylmethanesulfonamide], the IC50 was found to be 0.28 nM. `Cn1c(=O)c(-c2cc(F)c(NS(=O)(=O)Cc3ccccc3)c3ccccc23)cc2cnc(N[C@H]3CCCNC3)nc21` [Compound 6, (S)—N-(2-Fluoro-4-(8-methyl-7-oxo-2-(piperidin-3-ylamino)-7,8-dihydropyrido[2,3-d]pyrimidin-6-yl)naphthalen-1-yl)-1-phenylmethanesulfonamide] displayed an IC50 of 0.89 nM. Next, `Cn1c(=O)c(-c2cc(F)c(NS(=O)(=O)CCC(F)(F)F)c3ccccc23)cc2cnc(N[C@H]3CCCNC3)nc21` [Compound 7, (S)-3,3,3-Trifluoro-N-(2-fluoro-4-(8-methyl-7-oxo-2-(piperidin-3-ylamino)-7,8-dihydropyrido[2,3-d]pyrimidin-6-yl)naphthalen-1-yl)propane-1-sulfonamide]: 5.9 nM. Next, `CCCS(=O)(=O)Nc1c(F)ccc2c(-c3cc4cnc(N[C@H]5CCCNC5)nc4n(C)c3=O)cccc12` [Compound 8, (S)—N-(2-Fluoro-5-(8-methyl-7-oxo-2-(piperidin-3-ylamino)-7,8-dihydropyrido[2,3-d]pyrimidin-6-yl)naphthalen-1-yl)propane-1-sulfonamide]: 36 nM.

(Values after patent US12344603B2 (Genentech, Inc., priority 2020, dated 2025).)
